Measurements: patent US8455469B2, “Use of norgestimate as a selective inhibitor of TRPC3, TRPC6 and TRPC7 ion channels” (Sanofi, priority 2007, dated 2013)
“Also recorded” adds a separate entry of the source.

Target: T1, TRPC4 (Homo sapiens, UniProt Q9UBN4)
T1 construct: expressed in transfected cells; host or cells: HEK293 (inducible expression)
T1 sequence (Q9UBN4 1-977): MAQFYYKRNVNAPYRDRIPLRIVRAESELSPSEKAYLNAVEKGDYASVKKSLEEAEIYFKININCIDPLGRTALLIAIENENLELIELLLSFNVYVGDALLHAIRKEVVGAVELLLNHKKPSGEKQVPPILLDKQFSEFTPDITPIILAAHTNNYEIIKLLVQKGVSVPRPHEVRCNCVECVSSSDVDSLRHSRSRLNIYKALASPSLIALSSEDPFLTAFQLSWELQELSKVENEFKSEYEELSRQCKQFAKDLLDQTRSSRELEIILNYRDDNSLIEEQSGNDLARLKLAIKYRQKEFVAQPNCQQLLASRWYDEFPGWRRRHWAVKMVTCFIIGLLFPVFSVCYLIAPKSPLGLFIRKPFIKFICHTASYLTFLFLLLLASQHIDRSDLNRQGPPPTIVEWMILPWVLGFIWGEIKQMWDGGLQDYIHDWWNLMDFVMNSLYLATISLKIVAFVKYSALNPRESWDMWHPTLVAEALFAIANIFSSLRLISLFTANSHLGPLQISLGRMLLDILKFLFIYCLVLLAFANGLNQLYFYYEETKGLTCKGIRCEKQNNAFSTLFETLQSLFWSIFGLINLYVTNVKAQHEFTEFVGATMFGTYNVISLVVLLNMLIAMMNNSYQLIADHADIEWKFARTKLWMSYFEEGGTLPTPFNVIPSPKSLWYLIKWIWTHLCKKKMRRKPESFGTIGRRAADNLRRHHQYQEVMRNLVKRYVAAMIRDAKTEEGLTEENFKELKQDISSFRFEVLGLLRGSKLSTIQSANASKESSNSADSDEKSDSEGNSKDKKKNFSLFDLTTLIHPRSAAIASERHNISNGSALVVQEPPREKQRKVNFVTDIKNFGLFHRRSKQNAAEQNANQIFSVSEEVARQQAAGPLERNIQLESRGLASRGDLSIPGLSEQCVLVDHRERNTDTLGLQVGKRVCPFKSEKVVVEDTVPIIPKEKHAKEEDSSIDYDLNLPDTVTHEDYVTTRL
Assay: FLIPR Ca2+ influx measurement, trypsin-stimulated TRPC4 HEK293 cells
Type: cell-based
Settings: 200 nM trypsin
Description: In general, cells are provided which express a TRPC channel. Such cells can be produced using genetic methods known to a person skilled in the art. After having induced the expression of the TRPC channel, cells are usually plated into e.g. microtiter plates and grown. Usually the cells grow at the bottom of multiwell plates and are fixed. Thereafter, the cells are generally washed and loaded with a dye in a suitable loading buffer, preferably with a fluorescent dye such as fluo4am. After having removed the loading buffer, the cells are incubated with the test compound or modulator, in particular with a biochemical or chemical test compound as described above, e.g. in the form of a chemical compound library. Ca^2+ measurements can be carried out using e.g. a Fluorescence Imaging Plate Reader (FLIPR). To stimulate Ca^2+ influx through the TRPC channel a channel activator such as OAG should generally be applied.
When these experiments were performed, no direct physiological stimuli of TRPC4 and TRPC5 were known. Therefore, both channels had to be stimulated indirectly, e.g. by application of trypsin, a protease-activated receptor (PAR) stimulating protease. […] Kinetics and quantity of calcium store release in cells treated with 30 μM norgestimate were not changed compared to untreated cells. […]

C#C[C@]1(OC(C)=O)CC[C@H]2[C@@H]3CCC4=C/C(=N/O)CC[C@@H]4[C@H]3CC[C@@]21CC [norgestimate, D-17β-acetoxy-B-ethyl-17α ethinyl-gon-4-en-3-one oxime]
inhibitory effect on TRPC4-mediated Ca2+ influx (30 μM norgestimate): only small inhibitory effects; also recorded: slightly reduced
IC50 (FLIPR, n=2): > 30 µM
